Values of other authors as cited in PMC11206245 (Pharmaceuticals, 2024).
Like-named read-outs stand apart in the source and are kept apart here.

Experiments:
[1] = set-up: method as in PMID 22124669, PMID 20618337; conditions: humans; cited from earlier work
[2] = tested on: dogs; set-up: method as in PMID 15986212; conditions: cited from earlier work

Row | SMILES | half-life [1] | Toxicity outcome ([2]; 16 mg/m^2 orally) | Toxicity outcome ([2]; daily intravenous dose of 8 mg/m^2) | Toxicity outcome ([2]; intravenous daily doses of 16 mg/m^2)
1 | CO[C@H]1/C=C\C=C(/C)C(=O)NC2=CC(=O)C(N)=C(C[C@@H](C)C[C@H](OC)[C@H](O)[C@@H](C)/C=C(\C)[C@@H]1OC(N)=O)C2=O [17-AG, 17-amino-geldanamycin] | 6.2 to 7.6 h |  |  | 
2 | CO[C@H]1/C=C\C=C(/C)C(=O)NC2=CC(=O)C(NCCN(C)C)=C(C[C@@H](C)C[C@H](OC)[C@H](O)[C@@H](C)/C=C(\C)[C@@H]1OC(N)=O)C2=O [17-DMAG, 17-dimethylaminoethylamino-17-demetoxigeldanamycin] |  | Toxicity was also observed | Toxicity was also observed | fatal
